Source: PMC8495455, “Discovery of a transdermally deliverable pentapeptide for activating AdipoR1 to promote hair growth” (EMBO Molecular Medicine, 2021)

What was measured:
[1] = test system: p-AMPK in human buttock skin; assay: Topical application of P5 on human skin in vivo, p-AMPK (IF, Western blot); conditions: topical 0.075, 0.75, 1.5, or 7.5 mM on buttock, occluded, 24 h; IF and Western blot
Description: Next, we checked whether topically applied P5 can be delivered into human skin using ex vivo skin tissue culture model (Fig EV4A) (Haslam et al, [2018]). After topical application of vehicle or P5 on the ex vivo skin tissue, the dermal lysate of each tissue was examined by the qualitative mass spectrometry (MS). […] To trace the origin of P5, we used isotope‐marked P5 (P5*), in which carbon (^12C) atoms of Gly were substituted with isotope carbon atoms (^13C) increasing the molecular weight by 2 compared to that of original P5 (Fig EV4B). […] Collectively, P5 can be transdermally delivered into human skin.
Human ORS and DP cells or skin tissue were lysed (RIPA lysis buffer; #20‐188; Merck Millipore). The obtained protein was then separated by 8% SDS–PAGE and transferred to a polyvinylidene fluoride membrane (Amersham). The protein transferred membranes were incubated overnight with the specific antibodies. […] Antibody‐antigen complexes detected by enhanced chemiluminescent substrate (Thermo Fisher) were captured and quantified by Amersham imager 680 systems (GE Healthcare).
Paraffin‐embedded mouse cutaneous back tissue was sectioned (4 μm thickness) and stained with hematoxylin and eosin. […] IF intensity was observed and recorded with a Nikon Eclipse Ni‐E fluorescence microscope (Nikon). […]

VEGF protein = assay: Growth factor protein quantitation in DP cell medium, VEGF; assay type: cell-based, human; conditions: for protein_VEGF: DP cell medium
Description: (§1) Next, we investigated the downstream effects of P5 on hair growth factor genes and proteins in DP cells. […] We tested whether P5 can also increase the mRNA levels and proteins of hair growth factors in DP cells: IGF‐1, VEGF, HGF, platelet‐derived growth factor alpha (PDGFA), and fibroblast growth factor (FGF) 7, which are known to induce or maintain the anagen phase of the hair cycle (Jindo et al, [1994]; Philpott et al, [1994]; Yano et al, [2001]; Jang, [2005]; Tomita et al, [2006]; Iino et al, [2007]).
(§2) Human DP cells were grown on a 100‐mm cell culture dish to 100% confluency. After washed by PBS three times, the cells were cultured with serum‐free DMEM and treated with P5. After 48 h, the medium was collected and filtered by a […]. The filtrate was then concentrated using a centrifugal concentrator (Vivaspin 6, 10‐kDa molecular weight cutoff, centrifuged 2,600 g at 4°C for 13 min, Sartorius Stedim Biotech). The signals of each protein in the concentrated media were detected and quantified, based on the enzyme‐linked immunosorbent assay (Human Cytokine Antibody Array C2000, RayBiotech).

PDGFA protein = assay: Growth factor protein quantitation in DP cell medium, PDGFA; assay type: cell-based, human; conditions: for protein_PDGFA: DP cell medium
Description: as §1, §2

Adipoq−/− mice = assay: Mouse hair cycle modulation, histology and anagen induction score, Adipoq−/− mice; assay type: in vivo; conditions: Unpaired t-test
Description: We also evaluated P5 effect in Adipoq ^−/− mouse (Ma et al, [2002]). […] Skin pigmentation was prominent in P5‐treated Adipoq ^−/− mice at day 14 (Fig 4E). […] At day 35, unlike vehicle‐treated Adipoq ^−/− mice showing little pigmentation, P5‐treated Adipoq ^−/− mice manifested hairs with pigmentation (Fig 4E). […] The DP cells in P5‐treated Adipoq ^−/− mice expressed versican (Fig 4G).
Paraffin‐embedded mouse cutaneous back tissue was sectioned (4 μm thickness) and stained with hematoxylin and eosin. […] IF intensity was observed and recorded with a Nikon Eclipse Ni‐E fluorescence microscope (Nikon).
For the hair cycle modulation experiment, Adipoq ^−/− (stock #008195; JAX) (Ma et al, [2002]), Adipor1 ^−/− (Yamauchi et al, [2007]; Okada‐Iwabu et al, [2013]), or C57BL/6 (KOATECH) female mice was used (Müller‐Röver et al, [2001]). […] The mouse hair growth score (a value from 0 to 100 based on the skin pigmentation and hair shaft density) was monitored and documented at designated days with the experimenters being blind to the conditions, following a previous study (Chai et al, [2019]). […] On day 35, we obtained dorsal cutaneous tissue for histological analysis: anagen induction scores (calculated using an assigned arbitrary score; telogen = 1, anagen I–VI = 2–7) (Müller‐Röver et al, [2001]).

[2] = P5 5μM, relative to Control = 1, replicate 1
[3] = P5 5μM, relative to Control = 1, replicate 2
[4] = P5 5μM, relative to Control = 1, replicate 3
[5] = P5 25μM, relative to Control = 1, replicate 1
[6] = P5 25μM, relative to Control = 1, replicate 2
[7] = P5 25μM, relative to Control = 1, replicate 3
[8] = P5-treated DP cells, 48 h medium, n = 3

Substance: GLYYF [P5, GST-fused (GST-P5) in pulldown assays]
- Phosphorylation of AMPK in human skin in vivo [1]: induced the phosphorylation of AMPK in dermis as well as epidermis
- protein_VEGF (VEGF protein; [2]): 1.476
- protein_VEGF (VEGF protein; [3]): 1.303
- protein_VEGF (VEGF protein; [4]): 1.526
- protein_VEGF (VEGF protein; [5]): 1.967
- protein_VEGF (VEGF protein; [6]): 2.185
- protein_VEGF (VEGF protein; [7]): 1.674
- VEGF protein expression level (VEGF protein; [8]): elevated
- protein_PDGFA (PDGFA protein; [2]): 2.032
- protein_PDGFA (PDGFA protein; [3]): 1.0925
- protein_PDGFA (PDGFA protein; [4]): 1.228
- protein_PDGFA (PDGFA protein; [5]): 3.073
- protein_PDGFA (PDGFA protein; [6]): 1.25
- protein_PDGFA (PDGFA protein; [7]): 1.481
- PDGFA protein expression level (PDGFA protein; [8]): elevated
- Anagen induction score vs vehicle (Adipoq−/− mice): significantly higher
